# “And” between values parts separate entries of the source, which are not always exact repeats. Identical values can stand only once.
row,Compound,melting point
1,O=C(O)C(=Cc1ccccc1)Cc1ccccc1 [2-benzyl-3-phenylacrylic acid],158 °C
2,OB(O)c1cccnc1OCc1ccccc1 [2-benzyloxypyridine-3-boronic acid],146 °C
3,CC(C)(C)Br [2-bromo-2-methylpropane],-16 °C
4,"CC(Br)C(C)(C)C (stereo unspecified) [2-bromo-3,3-dimethylbutane]",25 °C
5,CCN(CC)c1ccc(C(=O)CBr)cc1 [2-bromo-4'-(diethylamino)acetophenone],51 °C
6,Cc1ccc(N)c(Br)c1 [2-bromo-4-methylaniline] [listing 1 of 2 here],14 °C
7,Cc1ccc(N)c(Br)c1 [2-bromo-4-methylaniline] [listing 2 of 2 here],15 °C
8,Cc1ccc([N+](=O)[O-])cc1Br [2-bromo-4-nitrotoluene],76 °C
9,OCc1ccnc(Br)c1 [2-bromo-4-pyridinemethanol],61 °C
10,FC(F)(F)c1ccc(Br)nc1 [2-bromo-5-(trifluoromethyl)pyridine],46 °C
11,Cc1c(Br)cccc1[N+](=O)[O-] [2-bromo-6-nitrotoluene],40 °C
12,Brc1nc2ccccc2[nH]1 [2-bromobenzimidazole],198 °C
13,O=C(O)c1ccccc1Br [2-bromobenzoic acid],148 °C
14,Brc1ccccc1-c1ccccc1 [2-bromobiphenyl],2 °C
15,Brc1ccc2ccccc2c1 [2-bromonaphthalene],55 °C
16,CC(C)Br [2-bromopropane],-89 °C
17,OB(O)c1cc2ccccc2nc1Br [2-bromoquinoline-3-boronic acid],146 °C
18,CCC(C)S (stereo unspecified) [2-butanethiol],-140 °C
19,"OCC#CCO [2-butyne-1,4-diol]",57 °C
20,CC#CCOS(=O)(=O)c1ccc(C)cc1 [2-butynyl p-toluenesulfonate],48 °C
21,O=C(O)c1ccccc1OP(=O)(O)O [2-carboxyphenyl phosphate],164 °C
22,O=C(CCl)Nc1ccccc1[N+](=O)[O-] [2-chloro-2'-nitroacetanilide],88 °C
23,N#Cc1cc(-c2ccccc2)cnc1Cl [2-chloro-3-cyano-5-phenylpyridine],145 °C

row,Compound,melting point
1,"CCNc1nc(Cl)nc(NCC)n1 [2-chloro-4,6-bis(ethylamino)-1,3,5-triazine]",228 °C
2,OB(O)c1ccc(C(F)(F)F)cc1Cl [2-chloro-4-(trifluoromethyl)benzeneboronic acid],111 °C
3,CN(C)c1ccc(C=O)c(Cl)c1 [2-chloro-4-dimethylaminobenzaldehyde],80 °C
4,Oc1ccc(F)cc1Cl [2-chloro-4-fluorophenol],22 °C
5,Nc1ccc([N+](=O)[O-])cc1Cl [2-chloro-4-nitroaniline],108 °C
6,N#Cc1ccc([N+](=O)[O-])cc1Cl [2-chloro-4-nitrobenzonitrile],80 °C
7,O=[N+]([O-])c1ccc(O)c(Cl)c1 [2-chloro-4-nitrophenol],110 °C
8,Cc1ccc(Cl)c(O)c1 [2-chloro-5-methylphenol],47 °C
9,Cc1cc([N+](=O)[O-])ccc1Cl [2-chloro-5-nitrotoluene],43 °C
10,ClCc1ccccc1Cl [2-chlorobenzyl chloride],-13 °C
11,CCC(C)Cl (stereo unspecified) [2-chlorobutane],-141 °C
12,Oc1ccccc1Cl [2-chlorophenol],8 °C
13,N#Cc1ccccc1C=O [2-cyanobenzaldehyde],104 °C
14,CCOCCOC(C)=O [2-ethoxyethyl acetate],-62 °C
15,C=CC(=O)OCC(CC)CCCC (stereo unspecified) [2-ethylhexyl acrylate],-90 °C
16,CCc1ccc2ccccc2c1 [2-ethylnaphthalene],-7.35 °C
17,CCC(C)I (stereo unspecified) [2-iodobutane],-104 °C
18,Oc1ccccc1I [2-iodophenol] [listing 1 of 2 here],43 °C and 38.5 °C
19,Oc1ccccc1I [2-iodophenol] [listing 2 of 2 here],40 °C
20,Sc1nc2ccccc2[nH]1 [2-mercaptobenzimidazole],303 °C
21,[O-][n+]1ccccc1S [2-mercaptopyridine n-oxide],71 °C
22,CCC(C)(C)O [2-methyl-2-butanol],-8 °C

# Second part, the molecule after the results:
row,melting point,Compound
1,202 °C,COc1ccc(B(O)O)c(Cl)c1 [2-chloro-4-methoxybenzeneboronic acid]
2,42 °C,COc1ccc(CC#N)c(Cl)c1 [2-chloro-4-methoxyphenylacetonitrile]
3,142 °C,O=C(O)c1ccc([N+](=O)[O-])cc1Cl [2-chloro-4-nitrobenzoic acid]
4,154 °C,O=[N+]([O-])c1cc[n+]([O-])c(Cl)c1 [2-chloro-4-nitropyridine n-oxide]
5,9 °C,Nc1cc(C(F)(F)F)ccc1Cl [2-chloro-5-(trifluoromethyl)aniline]
6,32 °C,Cc1ccc(Cl)c(N)c1 [2-chloro-5-methylaniline]
7,119 °C,Nc1cc([N+](=O)[O-])ccc1Cl [2-chloro-5-nitroaniline]
8,167 °C,O=C(O)c1cc([N+](=O)[O-])ccc1Cl [2-chloro-5-nitrobenzoic acid]
9,29 °C,FC(F)(F)c1cccc(Cl)n1 [2-chloro-6-(trifluoromethyl)pyridine]
10,130 °C,Oc1cccc(Cl)n1 [2-chloro-6-hydroxypyridine]
11,164 °C,O=C(O)c1c(Cl)cccc1[N+](=O)[O-] [2-chloro-6-nitrobenzoic acid]
12,36 °C,Cc1c(Cl)cccc1[N+](=O)[O-] [2-chloro-6-nitrotoluene]
13,183 °C,Clc1nc2ccccc2[nH]1 [2-chlorobenzimidazole]
14,140 °C,O=C(O)c1ccccc1Cl [2-chlorobenzoic acid]
15,46 °C,O=C(c1ccccc1)c1ccccc1Cl [2-chlorobenzophenone]
16,56 °C,N#CCC(=O)c1ccccc1Cl [2-chlorobenzoylacetonitrile]
17,70 °C,OCc1ccccc1Cl [2-chlorobenzyl alcohol]
18,166 °C,Clc1ncc[nH]1 [2-chloroimidazole]
19,-137 °C,CCCC(C)Cl (stereo unspecified) [2-chloropentane]
20,96 °C,O=C(O)Cc1ccccc1Cl [2-chlorophenylacetic acid]
21,-117 °C,CC(C)Cl [2-chloropropane]

row,melting point,Compound
1,69 °C,[O-][n+]1ccccc1Cl [2-chloropyridine n-oxide]
2,52 °C,O=Cc1cccnc1Cl [2-chloropyridine-3-carboxaldehyde]
3,-46 °C,Clc1ccccn1 [2-chloropyridine]
4,65 °C,"CCOC(=O)N1c2ccccc2C=CC1OCC (stereo unspecified) [2-ethoxy-1-ethoxycarbonyl-1,2-dihydroquinoline]"
5,-90 °C,CCOCCO [2-ethoxyethanol]
6,109 °C,CCc1ccc2c(c1)C(=O)c1ccccc1C2=O [2-ethylanthraquinone]
7,82 °C,CCc1ncc[nH]1 [2-ethylimidazole]
8,168 °C,O=C(O)c1ccc(C(F)(F)F)cc1F [2-fluoro-4-(trifluoromethyl)benzoic acid]
9,71 °C,OCc1ccc(F)c(B(O)O)c1 [2-fluoro-5-(hydroxymethyl)benzeneboronic acid]
10,71 °C,N#Cc1cc([N+](=O)[O-])ccc1F [2-fluoro-5-nitrobenzonitrile]
11,125 °C,COc1cccc(F)c1B(O)O [2-fluoro-6-methoxybenzeneboronic acid]
12,210 °C,N[C@H](Cc1ccccc1F)C(=O)O [2-fluoro-D-phenylalanine]
13,118 °C,O=Cc1ccccc1B(O)O [2-formylbenzeneboronic acid]
14,80 °C,NNC(=O)c1ccco1 [2-furohydrazide]
15,47 °C,CCCCCCCCCCCCCCC(C)O (stereo unspecified) [2-hexadecanol]
16,-56 °C,CCCCC(C)=O [2-hexanone]
17,-90 °C,CC#CCCC [2-hexyne]
18,185 °C,OB(O)c1ccccc1O [2-hydroxybenzeneboronic acid]
19,85 °C,OCc1ccccc1O [2-hydroxybenzyl alcohol]
20,198 °C,O=c1ccc2ccccc2[nH]1 [2-hydroxyquinoline]
21,92 °C,O=C(O)CC1Cc2ccccc2C1 [2-indanylacetic acid]

row,melting point,Compound
1,81 °C,Cn1ccnc1I [2-iodo-1-methylimidazole]
2,-38 °C,CC(C)(C)I [2-iodo-2-methylpropane]
3,16 °C,CC(C)c1ccccc1O [2-isopropylphenol]
4,146 °C,Cn1ccnc1S [2-mercapto-1-methylimidazole]
5,180 °C,Sc1nc2ccccc2s1 [2-mercaptobenzothiazole]
6,84 °C,COc1ccc2ccccc2c1C=O [2-methoxy-1-naphthaldehyde]
7,6 °C,COc1cc(C)ccc1O [2-methoxy-4-methylphenol]
8,104 °C,COc1ccccc1B(O)O [2-methoxybenzeneboronic acid]
9,101 °C,COc1ccccc1C(=O)O [2-methoxybenzoic acid]
10,-64 °C,COCCOCCOC [2-methoxyethyl_ether]
11,59 °C,COc1ccccc1OC(=O)c1ccccc1 [2-methoxyphenyl benzoate]
12,68 °C,COc1ccccc1CC#N [2-methoxyphenylacetonitrile]
13,106 °C,"CC1=CC(=O)c2ccccc2C1=O [2-methyl-1,4-naphthoquinone]"
14,213 °C,CC1=NC2=CCC=CC2=C1C#N [2-methyl-1H-indole-3-carbonitrile]
15,-134 °C,CC=C(C)C [2-methyl-2-butene]
16,-50 °C,CCCCCC(C)(C)O [2-methyl-2-heptanol]
17,-102 °C,CCCC(C)(C)O [2-methyl-2-pentanol]
18,26 °C,CC(C)(C)O [2-methyl-2-propanol]
19,48 °C,Cc1ccc(-c2ccccc2)s1 [2-methyl-5-phenylthiophene]
